SMILES strings stand for the structures. Like-named read-outs stand apart in the source and are kept apart here.

The conditions of data set [1]: estimated melting point temperature ranges of candidate organic compounds (Table 2); some compounds have several values, partly in parentheses, because analytic techniques differ; cited from earlier work.

`Nc1ccc2cc([N+](=O)[O-])ccc2n1` [Example 201] came in with a Melting Point of 265 °C. In addition, the “Melting Point” value in data set [1] is listed as 265° ° C.
Consider `CC(C)(C)C1=CC(=C2C=C(C(C)(C)C)C(=O)C(C(C)(C)C)=C2)C=C(C(C)(C)C)C1=O` [Example 22], for which the Melting Point lay in the range of 243 to 245 °C. Moreover, in data set [1], the “Melting Point” value is 243-245° ° C.
In turn, `Cc1ccc2cnc(O)cc2c1` [Example 204] showed a Melting Point of 265 °C. Also, the “Melting Point” value in data set [1] is on record as 265° ° C.
For the compound `c1nc2nc3nc[nH]cc3n2n1` [Example 77], the Melting Point came out at 250 °C. Further, in data set [1], the “Melting Point” value is on record as 250° ° C.
The compound `NC(=O)C1c2ccccc2-c2ccccc21` [Example 86] returned a Melting Point of 251 °C. For the same compound, the “Melting Point” value in data set [1] was 251° ° C.
In turn, `CCNC(=O)c1cc2c(cn1)[nH]c1ccccc12` [Example 61] registered a Melting Point of 247 to 249 °C. For the same compound, the “Melting Point” value in data set [1] was 247-249° ° C.
Consider `O=C1C=Cc2c(ccc3c2ccc2ccccc23)C1=O` [Example 142], for which the Melting Point lay within 260 to 261 °C. Besides, in data set [1], the “Melting Point” value is listed as 260-261° ° C.
For the compound `Nc1nc2c([N+](=O)[O-])cccc2s1` [Example 105], the Melting Point was 254 °C. The “Melting Point” value in data set [1] is listed as 254° ° C.
Consider `CC(=O)N[C@@H]1CCC[C@H](NC(C)=O)C1` [Example 166], for which the Melting Point is 262 to 264 °C. Besides, the “Melting Point” value in data set [1] is 262-264° ° C.
In turn, `CC1=C(/C=C/C(C)=C/C=C/C(C)=C/C=C/C=C(C)/C=C/C=C(C)/C=C/C2=C(C)C(=O)C(=O)C2(C)C)C(C)(C)C(=O)C1=O` [Example 26] had a Melting Point of 243 °C. Moreover, the “Melting Point” value in data set [1] is 243° ° C.
For `NNc1nnc(Cc2ccncc2)c2ccccc12` [Example 149], the Melting Point is 261 to 264 °C. In addition, the “Melting Point” value in data set [1] is 261-264° ° C.
In turn, `NC1=NCCC(CC(N)C(=O)O)N1` (stereo not shown) [Example 124] gave a Melting Point of 258 to 259 °C. The “Melting Point” value in data set [1] is given as 258-259° ° C.
Regarding `c1cnc2[nH]cnc2n1` [Example 128], the Melting Point lay in the range of 258 to 259 °C. For the same compound, in data set [1], the “Melting Point” value is reported as 258-259° ° C.
Compound `NC(=O)c1c2ccccc2nc2ccccc12` [Example 178] yielded a Melting Point of 263 to 264 °C. For the same compound, the “Melting Point” value in data set [1] is 263-264° ° C.
In turn, `Cn1cnc2ncn(C)c2c1=O` [Example 41] showed a Melting Point of 245 to 246 °C. Besides, in data set [1], the “Melting Point” value is 245-246° ° C.
As to `CC1(C)Oc2ccc(C#N)cc2[C@H](n2ccccc2=O)[C@H]1O` [Example 45], the Melting Point is 245 to 246 °C. For the same compound, the “Melting Point” value in data set [1] is given as 245-246° ° C.
As to `O=c1ccc2ncc[nH]c-2c1` [Example 90], the Melting Point is 252 to 254 °C. Moreover, the “Melting Point” value in data set [1] is 252-254° ° C.
As to `O=[N+]([O-])c1cccc2nc[nH]c12` [Example 12], the Melting Point worked out at 242 °C. For the same compound, the “Melting Point” value in data set [1] was 242° ° C.
On to `Oc1cc2c3ccccc3ccc2c2ccccc12` [Example 68], for which the Melting Point fell in the range of 248 to 250 °C. Further, in data set [1], the “Melting Point” value is given as 248-250° ° C.
Compound `O=[N+]([O-])c1ccc(NN=Cc2ccccn2)cc1` [Example 181] registered a Melting Point of 264 °C. In data set [1], the “Melting Point” value is 264° ° C.
As to `N#Cc1ccc(Nc2ccc(C#N)cc2)cc1` [Example 194], the Melting Point lay in the range of 265 to 266 °C. Also, the “Melting Point” value in data set [1] is 265-266° ° C.
Regarding `C(#Cc1c2ccccc2c(C#Cc2ccccc2)c2ccccc12)c1ccccc1` [Example 88], the Melting Point was in the range of 251 to 253 °C. For the same compound, the “Melting Point” value in data set [1] is reported as 251-253° ° C.
Regarding `O=C1C(=O)c2cc3ccccc3cc2-c2ccccc21` [Example 143], the Melting Point was in the range of 260 to 262 °C. Besides, in data set [1], the “Melting Point” value is on record as 260-262° ° C.
Turning to `Oc1cc2ccccc2c2cc3ccc4ccccc4c3cc12` [Example 130], the Melting Point lay within 258 to 259 °C. The “Melting Point” value in data set [1] was 258-259° ° C.
As for `O=C1c2ccccc2-c2oc(=O)c3ccccc3c21` [Example 156], the Melting Point lay in the range of 261 to 262 °C. Moreover, in data set [1], the “Melting Point” value is 261-262° ° C.
Regarding `O=Cc1c2ccccc2c(C=O)c2ccccc12` [Example 37], the Melting Point lay within 244 to 245 °C. Besides, in data set [1], the “Melting Point” value is given as 244-245° ° C.
Take `O=c1c2ccccc2oc2nc3ccccc3nc12` [Example 155]: the Melting Point was 261 °C. Moreover, in data set [1], the “Melting Point” value is 261° ° C.
As for `c1cc2n[nH]nc2cn1` [Example 50], the Melting Point was in the range of 246 to 247 °C. Also, in data set [1], the “Melting Point” value is reported as 246-247° ° C.
Regarding `CC1(C)CC2(CC(C)(C)NC(=O)N2)NC(=O)N1` [Example 190], the Melting Point was 265 to 268 °C. For the same compound, the “Melting Point” value in data set [1] was 265-268° ° C.
In turn, `NC(=O)C(CC(C(N)=O)C(N)=O)C(N)=O` [Example 168] came in with a Melting Point of 263 to 265 °C. In data set [1], the “Melting Point” value is 263-265° ° C.
`c1ccc2c(c1)-c1ccccc1C2C1c2ccccc2-c2ccccc21` [Example 56] came in with a Melting Point of 246 °C. For the same compound, the “Melting Point” value in data set [1] is listed as 246° ° C.
`Oc1cc2cc3c(ccc4ccccc43)cc2c2ccccc12` [Example 173]: the Melting Point fell in the range of 263 to 264 °C. In addition, the “Melting Point” value in data set [1] is recorded as 263-264° ° C.
`COc1ncnc2nc[nH]c12` [Example 161] returned a Melting Point of 262 to 263 °C. Moreover, the “Melting Point” value in data set [1] is listed as 262-263° ° C.
`NC(=O)CCCC[C@@H]1SC[C@@H]2NC(=O)N[C@@H]21` [Example 13] yielded a Melting Point of 242 to 244 °C. For the same compound, the “Melting Point” value in data set [1] was 242-244° ° C.
Compound `C#C/C=C/C1C(O)CCCC12CCCC(CCCC#C)N2` (stereo not shown) [Example 60] showed a Melting Point of 247 to 250 °C. The “Melting Point” value in data set [1] is listed as 247-250° ° C.
As for `NC(=O)c1c2c(nc3ccccc13)CCCC2` [Example 191], the Melting Point fell in the range of 265 to 267 °C. Moreover, in data set [1], the “Melting Point” value is on record as 265-267° ° C.
In turn, `COc1ccccc1[C@H](C)C(=O)N1C[C@@H]2[C@H](C1)C(c1ccccc1)(c1ccccc1)CC[C@@]2(O)c1ccccc1OC` [Example 34] showed a Melting Point of 244 °C. Moreover, the “Melting Point” value in data set [1] is on record as 244° ° C.
With `c1ccc2nc3nccnc3nc2c1` [Example 71], the Melting Point stood at 249 °C. In data set [1], the “Melting Point” value is 249° ° C.
Regarding `O=C1CCc2c1[nH]c1ccccc21` [Example 95], the Melting Point was 252 to 252.5 °C. Moreover, the “Melting Point” value in data set [1] is 252-252.5° ° C.
For the compound `O=C(O)c1cccc2c1-c1ccc([N+](=O)[O-])cc1C2=O` [Example 163], the Melting Point lay within 262 to 262.5 °C. Besides, in data set [1], the “Melting Point” value is on record as 262-262.5° ° C.
`O=[N+]([O-])c1c2ccccc2c([N+](=O)[O-])c2ccccc12` [Example 171] displayed a Melting Point of 263 °C. The “Melting Point” value in data set [1] is given as 263° ° C.
Take `O=c1c(=C2Cc3cccc4cccc2c34)c2cccc3cccc1c32` [Example 137]: the Melting Point fell in the range of 259 to 260 °C. In addition, the “Melting Point” value in data set [1] is on record as 259-260° ° C.
In the case of `O=C1CC(=O)N(c2ccccc2)C(=O)N1` [Example 160], the Melting Point amounted to 262 °C. Moreover, the “Melting Point” value in data set [1] is reported as 262° ° C.
Turning to `CC(=O)N[C@H]1[C@@H](OCc2ccccc2)O[C@@H]2CO[C@H](c3ccccc3)O[C@H]2[C@@H]1O` [Example 176], the Melting Point was 263 to 264 °C. Further, the “Melting Point” value in data set [1] is 263-264° ° C.
Regarding `c1ccc2c(c1)[nH]c1ccc3ccncc3c12` [Example 132], the Melting Point was 259 to 260 °C. Besides, the “Melting Point” value in data set [1] is recorded as 259-260° ° C.
In turn, `Nc1cc(N)n(N)c(=S)n1` [Example 197] returned a Melting Point of 265 °C. For the same compound, in data set [1], the “Melting Point” value is on record as 265° ° C.
Consider `CCN(CCCCN)c1ccc2c(=O)[nH][nH]c(=O)c2c1` [Example 136], for which the Melting Point lay within 259 to 260 °C. In addition, the “Melting Point” value in data set [1] was 259-260° ° C.
As for `COc1c(O)cc2c(c1OC)-c1ccc(OC)c(=O)cc1C(NC=O)CC2` (stereo not shown) [Example 175], the Melting Point fell in the range of 263 to 267 °C. Moreover, the “Melting Point” value in data set [1] was 263-267° ° C.
Consider `Cc1cc2[nH]c3ccccc3c2cc1C` [Example 87], for which the Melting Point was in the range of 251 to 253 °C. For the same compound, the “Melting Point” value in data set [1] was 251-253° ° C.
`Cn1c(=O)c2ccn(C)c2n(C)c1=O` [Example 192] had a Melting Point of 265 to 266 °C. In data set [1], the “Melting Point” value is given as 265-266° ° C.
`CCOc1cccc(C#N)c1` [Example 5] returned a Melting Point of 241 to 244 °C. Besides, in data set [1], the “Melting Point” value was 241-244° ° C.
`NNc1ccc(C(N)=O)nn1` [Example 72]: the Melting Point fell in the range of 249 to 250 °C. Further, in data set [1], the “Melting Point” value was 249-250° ° C.
Compound `O=[N+]([O-])c1ccc(NN=Cc2ccccc2Cl)cc1` [Example 73] had a Melting Point of 249 °C. Moreover, the “Melting Point” value in data set [1] was 249° ° C.
`CC1(C)CNC(=O)NC1` [Example 107] showed a Melting Point of 255 to 257 °C. For the same compound, in data set [1], the “Melting Point” value is 255-257° ° C.
Compound `O=c1c2ccccc2[nH]c2c([N+](=O)[O-])cccc12` [Example 164] yielded a Melting Point of 262 °C. For the same compound, the “Melting Point” value in data set [1] is 262° ° C.
As to `c1ccc2c(c1)[nH]c1ccc3cnccc3c12` [Example 99], the Melting Point was 254 to 255 °C. Further, the “Melting Point” value in data set [1] is 254-255° ° C.
The compound `O=C(C=Cc1ccccc1)NCCCCNC(=O)C=Cc1ccccc1` [Example 74] displayed a Melting Point of 249 to 253 °C. Besides, the “Melting Point” value in data set [1] is recorded as 249-253° ° C.
`N#Cc1ccc2c(=O)c3ccccc3sc2c1` [Example 110] displayed a Melting Point of 255 to 256 °C. For the same compound, the “Melting Point” value in data set [1] was 255-256° ° C.
Turning to `Cc1nc2c(C)c(C)c(C)c(C)c2[nH]1` [Example 209], the Melting Point turned out to be 265 °C. The “Melting Point” value in data set [1] is reported as 265° ° C.
